Like-named read-outs stand apart in the source and are kept apart here.
Assays:
[1] = Iron excretion (urine and stool) by hypertransfused iron-overloaded rats; assay type: in vivo, Sprague-Dawley rats; settings: for circulation time relative to DFO: intraperitoneal, inferred from increased urinary iron excretion; for Iron excreted, GROSS Stool / Iron excreted, GROSS Urine / Iron excreted, GROSS Stool, per μmole / Iron excreted, GROSS Urine, per μmole / Iron excreted, NET Stool, per μmole / Iron excreted, NET TOTAL, per μmole / Iron excreted, NET Urine, per μmole / Iron excreted, NET Stool / Iron excreted, NET Urine: 100 mg/kg; for Iron excreted, GROSS Stool, per μmole / Iron excreted, GROSS Urine, per μmole / Iron excreted, NET Stool, per μmole / Iron excreted, NET TOTAL, per μmole / Iron excreted, NET Urine, per μmole: normalized to molar dose; for absorption and cleavage after oral administration: inferred from net iron excretion; for Iron excreted, NET Stool / Iron excreted, NET Urine: gross minus background
Procedure: In this model, heat-damaged rat erythrocytes are transfused intraperitoneally (i.p.) on a daily basis.
Deferoxamine mesylate (DFO:Desferal) was obtained from the Ciba Pharmaceutical Company (Summit, N.J.) as a lyophilized powder. For administration to the hypertransfused rats, it was dissolved in physiological saline at a concentration of 10 mg/ml.
A homogeneous solution of acylated derivative was obtained by dissolving the drugs in propylene glycol at a concentration of 30 mg/ml.
Sprague-Dawley rats (60-80 g; Taconic Farms, Germantown, N.Y. (were iron overloaded via daily (5 days/week) intraperitoneal injections of heat-damaged rat erythrocytes. The red blood cells for infusion were purchased from Hilltop Lab Animals, Inc. (Scottsdale, Pa.). They were obtained from retired breeders, the donor animals being exsanguinated via cardiac puncture under CO2 anesthesia. The blood drawn into acid-citrate-dextrose containing gentamicin sulfate (25 g/ml) and shipped on wet ice by overnight express to the testing laboratory. Upon arrival the blood was stored at 4° C. for up to 7 days. Prior to infusion the red cells were slightly damaged by heating at 50° C. for 15 minutes.
The animals were placed on a low iron diet (>10 μg of Fe/g) for one week prior to screening. […] During screening the animals were placed in individual metabolic cages and urine and stool were collected daily. The daily transfusion of heat-damaged red cells was continued throughout drug testing and during intervals of rest between drug evaluations. The compounds were administered either by gavage (orally) or by intraperitoneal injection 4 to 8 hours after the animals were transfused. The dose of each drug was 100 mg/kg/day for 5 days. Urine and stool samples were collected approximately 24 hours after drug administration. They were placed in crucibles, dried at 110° C. and then ashed at 550° C. overnight. Following dissolution of the ash in 3N HCl, the iron content of the samples was determined by atomic absorption spectroscopy.
The iron-overloaded rats were divided into groups of six. Before testing any of the new compounds both positive and negative controls were evaluated. Baseline excretion of iron in the urine and stool of this series of hypertransfused rats was determined in the absence of drug administration (negative control). As a positive control, another group of six animals was given DFO intraperitoneally at a dose of 100 mg/kg (153 micromoles/kg). […] All of the drugs were evaluated both orally and intraperitoneally. The intraperitoneal effect was used to assess bioavailability.
In the prodrugs, where the hydroxamic acid moieties (iron binding sites) of DFO were blocked, effectiveness upon parenteral administration would indicate that the rat is able to metabolize the prodrug to the active species. Failure to be effective orally could then be attributed to lack of absorption. […] In order to obtain an estimate of the relative iron-chelating potency within the series, the amount of iron excreted in response to the acylated derivatives was normalized to correspond to the molar equivalent of 100 mg/kg DFO.

[2] = cited from earlier work
[3] = Intraperitoneal LD50 in Swiss-Webster mice; settings: for LD50: mouse, in vivo, ip
[4] = Solubility in water and ordinary organic solvents; assay type: physicochemical; settings: in words
[5] = ip, 100 mg/kg, DFO (historic), n=54

Compound | circulation time relative to DFO [1] | Iron excreted, GROSS Stool ([1]; ip, acylated derivatives) [µg/kg/day] | Iron excreted, GROSS Urine ([1]; ip, acylated derivatives) [µg/kg/day] | Iron excreted, GROSS Stool, per μmole ([1]; ip) [µg/kg/day/µmol] | Iron excreted, GROSS Urine, per μmole ([1]; ip) [µg/kg/day/µmol] | Iron excreted, NET Stool, per μmole ([1]; ip) [µg/kg/day/µmol] | Iron excreted, NET TOTAL, per μmole ([1]; ip) [µg/kg/day/µmol] | Iron excreted, NET Urine, per μmole ([1]; ip) [µg/kg/day/µmol] | absorption and cleavage after oral administration ([1]; oral) | Iron excreted, GROSS Stool ([1]; po) [µg/kg/day] | Iron excreted, GROSS Urine ([1]; po) [µg/kg/day] | Iron excreted, GROSS Stool, per μmole ([1]; po) [µg/kg/day/µmol] | Iron excreted, GROSS Urine, per μmole ([1]; po) [µg/kg/day/µmol] | Iron excreted, NET Stool, per μmole ([1]; po) [µg/kg/day/µmol] | Iron excreted, NET TOTAL, per μmole ([1]; po) [µg/kg/day/µmol] | Iron excreted, NET Urine, per μmole ([1]; po) [µg/kg/day/µmol] | other results
CCCC(=O)NCCCCCN(OC(=O)CCC)C(=O)CCC(=O)NCCCCCN(OC(=O)CCC)C(=O)CCC(=O)NCCCCCN(OC(=O)CCC)C(C)=O [BDB3, N-Butyroyl-O,O,O-tributyryl deferoxamine] | circulate for a longer period of time than DFO | 875 | 174 | 7.35 | 1.46 | 5.17 | 6.12 | 0.95 | efficiently absorbed and subsequently cleaved | 507 | 91 | 4.26 | 0.76 | 2.08 | 2.33 | 0.25 | –
CC(=O)N(O)CCCCCNC(=O)CCC(=O)N(O)CCCCCNC(=O)CCC(=O)N(O)CCCCCN [DFO, N'-[5-[[4-[[-5-(acetylhydroxamino)pentyl]amino]-1,4-dioxobutyl]hydroxyamino]pentyl]-N-(5-aminopentyl)-N-hydroxybutanediamide, reference compound] | – | – | – | 5.60 | 1.18 | 3.42 | 4.09 | 0.67 | – | 398 | 98 | 2.60 | 0.64 | 0.03 | 0.06 | 0.03 | Iron excreted, GROSS Stool [2, 5]: 857 µg/kg/day; Iron excreted, GROSS Urine [2, 5]: 180 µg/kg/day; effectiveness of oral relative to parenteral administration ([2]; oral vs parenteral, historical data): less than 10%; Iron excreted, NET Stool ([1]; ip, DFO (historic)): 465 µg/kg/day; Iron excreted, NET Urine ([1]; ip, DFO (historic)): 87 µg/kg/day; Iron excreted, NET Stool ([1]; po): 6 µg/kg/day; Iron excreted, NET Urine ([1]; po): 5 µg/kg/day; LD50 [3]: 800 mg/kg
CCCCCCCCCCCCCC(=O)NCCCCCN(OC(=O)CC)C(=O)CCC(=O)NCCCCCN(OC(=O)CC)C(=O)CCC(=O)NCCCCCN(OC(=O)CC)C(C)=O [MDP3, N-Myristoyl-O,O,O-tripropionyl deferoxamine] | – | 434 | 134 | 4.06 | 1.25 | 1.88 | 2.62 | 0.74 | – | 551 | 88 | 5.15 | 0.82 | 2.97 | 3.28 | 0.31 | increase of potency (absorption) on lengthening N-terminal amide from 3 to 14 carbons ([1]; oral, MDP3 vs PDP3): two-thirds
CCCCCCCC(=O)ON(CCCCCNC(=O)CCC(=O)N(CCCCCNC(=O)CCC(=O)N(CCCCCN(C(C)=O)C(=O)CCCCCCC)OC(=O)CCCCCCC)OC(=O)CCCCCCC)C(C)=O [N-acetyl-N-octanoyl-O,O,O-trioctanoyldeferoxamine] | – | – | – | – | – | – | – | – | – | – | – | – | – | – | – | – | increase of absorption on adding an N-acyl group ([1]; oral, vs N-acetyl-O,O,O-trioctanoyldeferoxamine, earlier unpublished data): about 50%
CCCCCCCC(=O)NCCCCCN(O)C(=O)CCC(=O)NCCCCCN(O)C(=O)CCC(=O)NCCCCCN(O)C(C)=O [N-octanoyl-O,O,O-trihydrogendeferoxamine] | – | – | – | – | – | – | – | – | – | – | – | – | – | – | – | – | solubility in water and ordinary organic solvents [4]: sparingly soluble
CCC(=O)NCCCCCN(OC(=O)CC)C(=O)CCC(=O)NCCCCCN(OC(=O)CC)C(=O)CCC(=O)NCCCCCN(OC(=O)CC)C(C)=O [PDP3, N-Propionyl-O,O,O-tripropionyl deferoxamine] | circulate for a longer period of time than DFO | 933 | 179 | 7.29 | 1.40 | 5.11 | 6.00 | 0.89 | efficiently absorbed and subsequently cleaved | 496 | 99 | 3.88 | 0.77 | 1.70 | 1.96 | 0.26 | –
CCCCC(=O)NCCCCCN(OC(=O)CCCC)C(=O)CCC(=O)NCCCCCN(OC(=O)CCCC)C(=O)CCC(=O)NCCCCCN(OC(=O)CCCC)C(C)=O [VDV3, N-Valeroyl-O,O,O-trivaleroyl deferoxamine] | circulate for a longer period of time than DFO | 966 | 184 | 8.63 | 1.64 | 6.45 | 7.58 | 1.13 | efficiently absorbed and subsequently cleaved | 599 | 133 | 5.35 | 1.19 | 3.17 | 3.85 | 0.68 | relative activity among derivatives tested ([1]; in words): most active derivative tested; iron excretion relative to oral DFO ([1]; oral, vs DFO given orally): more than 60 times; systemic toxicity ([3]; in words): lack of systemic toxicity; LD50 [3]: 800 mg/kg

— patent publication US5550161A, “Substituted orally effective ION chelators related to deferoxamine” (Oral-D, priority 1993, dated 1996)
